Experimental data from patent US9938328B2, “Use of PEDF-derived polypeptides for treating alopecia and/or hair depigmentation” (MacKay Memorial Hospital, priority 2012, dated 2018).
Entries after “also recorded” stand apart in the source; their conditions may differ.

Legend:
[1] = test system: male mouse vibrissal hair follicles; experiment: Organ culture of mouse vibrissal hair follicles challenged with DHT (TUNEL, BrdU, histology); type: cell-based; settings: for BrdU Labeling Index (%) / TUNNEL Labeling Index (%): peptide for 16 hours, then 100 nM DHT for further 48 hours, hair matrix keratinocytes; for TUNEL-positive keratinocytes versus vehicle or 18-mer (in words): vibrissae with 100 nM DHT
Method: (§1) The vibrissae follicle cryosections were washed three times in PBS. Formalin-fixed, paraffin-embedded skin specimens were deparaffinized in xylene and rehydrated in a graded series of ethanol. Sections were then stained with TdT-mediated dUTP nick-end labeling (TUNEL)-based kit (Roche Molecular Biochemicals, Indianapolis, Ind.) following the manufacturer's instructions. The cell number was monitored by counterstaining with Hoechst 33258 (blue). The nuclei were calculated in ten randomly selected fields of the three different chambers by a Zeiss epifluorescence microscope (400×, 10 fields/sample). Pictures were recorded on Zeiss software.
(§2) After fixing with 4% paraformaldehyde, cells were exposed to cold methanol for 2 minutes, and then treated with 1 N HCl at room temperature for 1 hour before performing immunofluorescence. BrdU-labeled DNA was detected by polyclonal anti-BrdU antibody and rhodamine-conjugated donkey anti-rabbit IgG.
(§3) For animal study, BrdU was reconstituted in DMSO as stock (80 mM). 10 μl of BrdU mixed with 90 μl of PBS was intraperitoneally injected into mouse at 16 hours prior to euthanasia. Formalin-fixed, paraffin-embedded skin specimens were deparaffinized in xylene and rehydrated in a graded series of ethanol before performing immunohistochemistry. The vibrissae follicle cryosections were washed three times in PBS and then exposed to 1 N HCl at room temperature for 1 hour for subsequent immunohistochemistry.
Mouse vibrissae follicles were cultured as follows. Briefly, whisker pads were cut off from the face of mouse and transferred to a Petri dish containing PBS and 1% antibiotic mixture. Each vibrissae follicle that was in anagen was isolated from the whisker pads and cultured in DMEM supplemented with insulin (10 μg/ml), hydrocortisone (10 ng/ml, Sigma-Aldrich), 1% penicillin/streptomycin antibiotic mixture and L-glutamine (2 mM), using 24-well culture plates (3 vibrissae follicles per well) and incubated at 37° C., in 5% CO2. Ten to fifteen HFs were studied in each experimental group, and were repeated three times. DHT and PEDF peptide dissolved in DMSO were added to the HF culture supplemented with insulin and hydrocortisone (the final concentration of DMSO was less than 0.05%).
Each PEDF peptide (29-mer, 24-mer, 20-mer, or Mo 20-mer) was added to organ culture of male mouse vibrissal hair follicles (HFs) for 16 hours, and then 100 nM DHT was added for further 48 hours.
Immunodetections of TUNEL- and BrdU-positive cells in cryosections were used for assessing apoptosis and proliferation activity in the HF epithelium, respectively. The labeling index (%) of TUNEL- and BrdU-positive cells was computed as the number of labeled cells divided by the total number of cells with nuclei.

male C57BL/6 mice = experiment: DHT-induced catagen development in depilated mice, topical peptide gel (histomorphometry, TUNEL, BrdU); type: in vivo, mouse; settings: day-15 post-depilation; for hair cycle phase of hair follicles (histology, in words): 4 days after the DHT injection; for BrdU Labeling Index (%) in HB: hair bulb; for Phase (%) Anagen-Catagen I / Phase (%) Catagen II-III / Phase (%) Catagen IV-V / Phase (%) Catagen VI-VIII: percentage of hair follicles
Method: (§4) Before use, the stock containing the 44-mer was prepared into a working dilution, which is then mixed with an antibiotic ointment containing 5 mg/g neomycin sulfate and 12.5 mg/g bacitracin to obtain an antibiotic ointment containing 25 μM of 44-mer. As to other PEDF peptides, 5 μl of 5 mM PEDF peptide stock was gradually dissolved in ethyl alcohol (30% w/w in distilled water), and then 1-oleoyl-rac-glycerol (1% w/w, a skin penetration enhancer) and light mineral oil (1% w/w) were gradually added. The solution was finally gelled by adding hydroxypropyl methylcellulose (5% w/w) to a final volume of 1 ml. A DMSO vehicle corresponding to the peptide formulation was prepared for the purpose of in vivo comparison. FITC-29-mer was also dissolved in the same formulation for applied on top of skin to determining the follicular distribution of FITC-29-mer.
(§5) For topical treatments, 350 mg ointment or gel containing 25 μM of PEDF peptide was spread gently over dorsal skin per mouse.
The murine back skin was harvested parallel to the vertebral line to obtain longitudinal sections through the hair follicles. Dorsal skin was fixed in 4% paraformaldehyde and embedded in paraffin blocks to obtain longitudinal section. Tissues were sliced into 5 μm sections. Before use, fixed samples were de-paraffinized in xylene and rehydrated in a graded series of ethanol. General histology was performed using H&E dye. Digital photomicrographs (Zeiss epifluorescence microscope; Jena, Germany) were taken from representative areas at a fixed magnification of 100×.
For analysis of HF morphogenesis, animals were euthanized at day 15 post-depilation. The percentage of hair follicles in different stages of morphogenesis was assessed on the accepted basis of murine HF morphological criteria as described by Müuller-Röver et al. (Journal of Investigative Dermatology (2001) 117, 3-15). At least 24 longitudinally cut HF sections obtained from six to ten DHT-treated animals, were analyzed.
as §1, §3
For in vivo analysis, a 5α-dihydrotestosterone (DHT) animal model was employed. Six-week-old male C57BL/6 mice (weighing 15-20 g) in the telogen stage of the hair cycle were depilated using a melted wax/rosin mixture (1:1) under general anesthesia, and the anagen stage was induced. DHT was dissolved in DMSO to give a 50 mg/ml stock solution. On day-11 post-depilation, mice (six to ten mice per experimental condition) were injected subcutaneously in the shaved dorsal area with DHT solution (30 mg/kg body weight; 1.5 mg of DHT mixed within 200 μl of olive oil per mouse). After the DHT injection, 350 mg vehicle gel or gel containing 25 μM of PEDF peptide (29-mer, 24-mer, 20-mer, or 18-mer) was topically applied to the back skin of mice once per day for 3 days. […]

C57BL/6 mice = experiment: Hair regrowth in DHT-injected depilated mice, topical peptide gel for 14 days; type: in vivo, mouse; settings: for Numbers of Hair Bulbs/mm deep subcutis / Hair Growth Score: DHT 30 mg/kg s.c. twice per week, gel 25 μM once per day for 14 days; for increase in total number of hair bulbs versus vehicle or 18-mer / hair regrowth after depilation (FIG. 7, in words): DHT-injected mice; for hair regrowth after depilation (FIG. 7, in words): daily application, day-18 post-depilation; for Hair Growth Score: scale 0 (0%) to 5 (80-100% of shaved area dark)
Method: as §4, §5
To evaluate the effect of PEDF peptide on restarting hair growth, C57BL/6 mice were depilated as described in Example 3.2. At day-11 post-depilation, mice (six to ten mice per experimental condition) were injected subcutaneously (30 mg/kg body weight) in the shaved dorsal area with DHT solution (1.5 mg of DHT mixed within 200 μl of olive oil), and then the mice were injected with DHT twice per week during the course of the study. After the first DHT injection, 350 mg vehicle gel or gel containing 25 μM PEDF peptide (29-mer, 24-mer, 20-mer, or 18-mer) was topically applied to the back skin of mice once per day for 14 days. Changes in hair coat were recorded by photographing with a digital camera (FIG. 7), and the percentage of the shaved area that became dark (re-grown hair) was measured. The scores of hair regrowth after DHT injection was evaluated using the following scale: 0, 0% (no hair growth); 1, <20%; 2, 20-39%; 3, 40-59%; 4, 60-79%; 5, 80-100%. Numbers of hair bulbs per unit length (1 mm) of deep subcutis were counted as described above.

[2] = test system: human epidermal keratinocytes (HaCaT); experiment: BrdU incorporation in HaCaT keratinocytes in response to TGF-β1 and PEDF-derived peptide; type: cell-based
Method: as §2
An immortalized human keratinocyte cell line (HaCaT) was cultured at 37° C. in 10% FBS-DMEM. Treatments with PEDF peptide and recombinant human TGFβ1 (R&D Systems) were performed on cells seeded in 5% FBS-DMEM.
It is known that DHT would induce the expression of transforming growth factor-β1 (TGF-β1) in dermal papilla cells (DPCs), and TGF-β1 is a catagen inducer that suppresses hair growth and follicular keratinocyte growth in subjects with androgenic alopecia. To further confirm that PEDF-derived peptide is able to protect keratinocytes from DHT-mediated growth suppression, the cell division of human epidermal keratinocytes (HaCaT) in response to TGF-β1 and PEDF-derived peptide were assessed by BrdU incorporation. The labeling index (%) of BrdU-positive cells was computed as the number of labeled cells divided by the total number of cells with nuclei.
However, in the TGF-β1+20-mer treatment group, TGF-β1 was unable to suppress the proliferative activity of HaCaT, when cells were pretreated with 20-mer for 16 hours.

[3] = DHT 30 mg/kg s.c., gel 25 μM once per day for 3 days

| Substance | BrdU Labeling Index (%) [1] [%] | TUNNEL Labeling Index (%) [1] [%] | TUNEL-positive keratinocytes versus vehicle or 18-mer (in words) [1] | hair cycle phase of hair follicles (histology, in words) (male C57BL/6 mice) | BrdU Labeling Index (%) in HB (male C57BL/6 mice; [3]) [%] | Numbers of Hair Bulbs/mm deep subcutis (C57BL/6 mice) | increase in total number of hair bulbs versus vehicle or 18-mer (C57BL/6 mice) [fold] | hair regrowth after depilation (FIG. 7, in words) (C57BL/6 mice) | Hair Growth Score (C57BL/6 mice) | BrdU Labeling Index (%) [2] [%] | TUNNEL-positive cell/HF in HM and ORS (male C57BL/6 mice; [3]) [cell/HF] | Phase (%) Anagen-Catagen I (male C57BL/6 mice; [3]) [%] | Phase (%) Catagen II-III (male C57BL/6 mice; [3]) [%] | Phase (%) Catagen IV-V (male C57BL/6 mice; [3]) [%] | Phase (%) Catagen VI-VIII (male C57BL/6 mice; [3]) [%] |
| --- | --- | --- | --- | --- | --- | --- | --- | --- | --- | --- | --- | --- | --- | --- | --- |
| SLGAEQRTESIIHRALYYDLISSP [24-mer, corresponds to residues 93-116 of human PEDF] | 22.0 ± 3.69 | 6.5 ± 2.43 | much less TUNEL-positive keratinocytes | significantly higher percentage of hair follicles was found in the anagen phase, and the early catagen phase | 46.9 ± 2.57 | 7.2 ± 1.07 /mm | 1.6 | amelioration of the retardation of hair regrowth | 4.13 ± 0.40 | – | – | – | – | – | – |
| transforming growth factor-β1 [TGF-β1, reference compound] | – | – | – | – | – | – | – | – | – | 9.9 ± 2.23 | – | – | – | – | – |
| SLGAEHRTESVIHRALYYDL [Mo 20-mer, synthetic peptide derived from mouse PEDF] | 24.6 ± 2.56 | 7.3 ± 1.75 | much less TUNEL-positive keratinocytes | – | – | – | – | – | – | – | – | – | – | – | – |
| EQRTESIIHRALYYDLIS [18-mer, 18-mer peptide without the SLGA residues] | 8.4 ± 1.21 | 26.2 ± 4.21 | – | entered catagen; also recorded: in the middle and late catagen phase | 25.6 ± 2.52 | 4.8 ± 0.86 /mm | – | remarkable retardation of hair regrowth | 1.88 ± 0.40 | – | 7.6 ± 1.5 | 9.7 ± 1.8 | 13.85 ± 1.75 | 53.05 ± 0.85 | 23.4 ± 4.4 |
| SLGAEQRTESIIHRALYYDLISSPDIHGT [29-mer, corresponds to residues 93-121 of human PEDF] | 22.6 ± 2.42 | 5.8 ± 2.12 | much less TUNEL-positive keratinocytes | mostly in the anagen phase; also recorded: significantly higher percentage of hair follicles was found in the anagen phase, and the early catagen phase | 44.89 ± 2.95 | 7.4 ± 1.03 /mm | 1.6 | amelioration of the retardation of hair regrowth | 3.75 ± 0.37 | – | – | 39.85 ± 1.35 | 37.8 ± 1.3 | 19.15 ± 2.05 | 3.2 ± 0.6 |
